Test results published in patent US20130123367A1, “VINYLOGOUS CHALCONE DERIVATIVES AND THEIR MEDICAL USE” (MEDIZINISCHE UNIVERSITAT WIEN, priority 2010, published 2013).
Like-named read-outs stand apart in the source and are kept apart here.

Columns and labels:
Assay type in all cases: cell-based
[1] = system: K562 (Chronic myeloid leukemia); test: Cell viability assay using EZ4U viability kit, K562; conditions: Homo sapiens
Protocol: (§1) For quantification, cells are treated with a tetrazolium salt as indicator of cell viability. […] Then, the solution is analyzed photometrically at 450 nm with 620 nm as reference.
(§2) The final DMSO concentration was 0.5%. […] Then, wells were filled with 20 μl substrate solution for 2 to 4 hours and analyzed.
(§3) Cell viability was calculated relative to DMSO control for data comparison. IC50 values (50% inhibition of cell growth) were determined with GraphPad Prism® (Version 4.03) using nonlinear regression (sigmoidal dose-response with variable slope).

[2] = system: chronic lymphocytic leukemia (CLL) cells in co-culture with stromal cells; test: Co-culture model of primary CLL cells and stromal cells (CellTiter-Blue viability); conditions: 48 h incubation; mean of 5 patients; FIG. 7
Description: FIG. 7: […] Data points represent the arithmetic mean of 5 patients calculated in relation to the control. […] The final DMSO concentration was 0.5%. […] In many tumors, the microenvironment plays a major role for the survival of malignant cells. In chronic lymphocytic leukemia (CLL), it has been shown that interaction with the microenvironment, among other things, promotes the survival of tumor cells during chemotherapy. Thus, co-culture models have been developed which better reflect the in vivo situation. The inventors used such a pre-clinical model for drug incubation to study the effect of stromal cells on viability.

[3] = system: vascular smooth muscle cells (VSMC); test: Crystal violet assay, VSMC; conditions: Rattus norvegicus, n = 3
Protocol: (§4) For quantification, cells are treated with crystal violet, a dye that stains proteins. After washing away of excess dye, the remaining crystal violet is dissolved in a sodium citrate solution. The solution is analyzed photometrically at 590 nm. The optical density of this solution depends on the concentration of crystal violet and therefore on the amount of cells. […] To reduce effects of evaporation, only the inner 60 wells of 96-well plates (coated with 0.1% gelatine solution for studies with HUVEC) were used for experiments.
(§5) Cells were treated with 2 μl of the working solution 24 h after seeding. Final compound concentrations in the well were 10 μM for the first round of screening. The final DMSO concentration was 0.5%. […] After finishing the addition of compounds, the T0-plate was stained with crystal violet for giving the cell density at time point zero. […] After air drying of the plates the crystal violet on the cells was dissolved in 100 μl of sodium citrate solution, and the absorption was measured with a plate reader at 590 nm.
as §3, with “Mean values were corrected with the absorption of stained medium and the corrected absorption of T0 cells. Cell” for “Cell”, “growth” for “viability”, “slope). […]” for “slope).”

hematological cell lines = test: Viability assay in cell lines, summary of Table 4; conditions: after 48 hours in most of the cell lines, read-out: IC50-values obtained by the viability assay in cell lines
Protocol: as §1, §2, §3

[4] = system: breast cancer cell line MDA MB231; test: Crystal violet assay, MDA MB231; conditions: Homo sapiens, MDA-MB-231, n = 3
Protocol: as §4, §5
as §3, with “Mean values were corrected with the absorption of stained medium and the corrected absorption of T0 cells. Cell” for “Cell”, “growth” for “viability”, “slope). […]” for “slope).”

HUVEC = test: Cell proliferation assay using crystal violet, HUVEC; conditions: Homo sapiens
Protocol: as §4
(§6) Cells were seeded at a density of 5 000 cells per well in 100 μl growth medium (HUVEC) or 20 000 (HCT116), 15 000 (SW480 and 518A2) or 10 000 (HT29) cells per well in 200 μl growth medium in 55 wells per plate. 5 wells were filled with medium only. Additionally, a 96-well plate with cells in 12 wells and medium in 6 wells was prepared as T0-plate. The next day, additional 98 μl of growth medium were added in every well (only HUVEC).
(§7) Cells were treated with 2 μl of the working solution 24 h after seeding. Final compound concentrations in the well were 10 μM for the first round of screening. The final DMSO concentration was 0.5%. […] After finishing the addition of compounds, the T0-plate was stained with crystal violet for giving the cell density at time point zero. Before staining, the growth medium was poured away. Wells were filled with 50 μl crystal violet solution for 10 min. Then the staining solution was washed away with water. Since crystal violet is environmentally hazardous the waste was collected and disposed in an appropriate manner. After air drying of the plates the crystal violet on the cells was dissolved in 100 μl of sodium citrate solution, and the absorption was measured with a plate reader at 590 nm.
Mean values were corrected with the absorption of stained medium and the corrected absorption of T0 cells. Cell growth was calculated relative to DMSO control for data comparison.

[5] = system: HL60 (Acute promyelocytic leukemia); test: Cell viability assay using EZ4U viability kit, HL60; conditions: Homo sapiens
Protocol: as §1, §2, §3

[6] = system: colon cancer cell line HT29; test: Cell proliferation assay using crystal violet, HT29; conditions: Homo sapiens, HT-29, n = 3, 24 h incubation
Protocol: as §4, §6, §7
as §3, with “Mean values were corrected with the absorption of stained medium and the corrected absorption of T0 cells. Cell” for “Cell”, “growth” for “viability”, “slope). […]” for “slope).”

[7] = system: CLL cell lines MEC-1 and MEC-2; test: Annexin V-FITC / propidium iodide staining, apoptosis in CLL cell lines; conditions: MEC-1 and MEC-2; 24 and 48 hours incubation; FIG. 4
Protocol: Apoptosis was detected using propidium iodide/Annexin V FACS staining (Bender MedSystems).
Annexin V binds to phosphatidylserine which is exposed at the cell surface during execution of apoptosis. First, cells were seeded out at a density of 1.5 to 2.5 million cells per well in 12 well plates and then growth medium was added to each well to get a final volume of 2.5 ml. Compounds to be tested were diluted with medium from a 10 mM stock solution in DMSO to get different concentrations and cells were treated with 25 μl of these solutions. The final DMSO concentration was 0.5%. All treatments and controls were performed twice. Cells were incubated at 37° C. and 5% CO2 for 24 h and 48 h. Then, growth medium was removed by centrifugation, the supernatant discarded and 200 μl of an Annexin V solution were added. After 10 minutes in the dark, cells were washed once with Annexin buffer and the solution removed by centrifugation. The supernatant was discarded again and cells were suspended in 200 μl of a propidium iodide solution. Cells were measured by flow cytometry with a total of 10 000 events. Data were analyzed with CellQuest Pro™.
Compounds 1 and 22 were also tested on the CLL cell lines MEC-1 and MEC-2 in comparison with fludarabine and cyclophosphamide, two compounds used in the treatment of hematological malignancies (MEC-1 is a fludarabine-resistant cell line).

[8] = system: colon cancer cell line SW480; test: Cell proliferation assay using crystal violet, SW480; conditions: Homo sapiens, n = 3, 24 h incubation
Protocol: as §4, §6, §7
as §3, with “Mean values were corrected with the absorption of stained medium and the corrected absorption of T0 cells. Cell” for “Cell”, “growth” for “viability”
Compounds showing an inhibition of proliferation of more than 50% at a concentration of 10 μM were defined as active, and their IC50-values were determined.

[9] = 24 h incubation, read-out: IC50 (nM) K562 24 h (converted)
[10] = 48 h incubation, read-out: IC50 (nM) K562 48 h (converted)
[11] = HL-60, 24 h incubation, read-out: IC50 (nM) HL60 24 h
[12] = HL-60, 48 h incubation, read-out: IC50 (nM) HL60 48 h

SMILES	IC50 [1, 9] [nM]	IC50 [1, 10] [nM]	viability of CLL cells in co-culture with stromal cells [2]	IC50 [3] [nM]	IC50 (hematological cell lines) [nM]	IC50 [4] [nM]	IC50 (HUVEC; n = 3, 48 h incubation, read-out: IC50 (nM) HUVEC (converted)) [nM]	IC50 (HUVEC; n = 3, read-out: IC50 (nM) HUVEC (Table 2)) [nM]	IC50 [5, 11] [nM]	IC50 [5, 12] [nM]	IC50 [6] [nM]	apoptosis induction compared with fludarabine and cyclophosphamide [7]	IC50 [8] [nM]
COc1ccccc1/C=C/C=C/C(=O)c1cc(OC)c(OC)c(OC)c1 [Compound 1, 5-(2-Methoxyphenyl)-1-(3′,4′,5′-trimethoxyphenyl)-2,4-pentadiene-1-one]	20900	50	higher cytotoxicity than the control drugs fludarabine and cyclophosphamide	> 100000	~10	630	340	280	490	170	540	induced apoptosis in a lower concentration range than fludarabine and cyclophosphamide	520
CCOc1ccccc1C(=O)/C=C/c1ccc2ccccc2c1 [Compound 22, 3-(2-Naphthyl)-1-(2′-ethoxyphenyl)-2-propene-1-one]	17700	13700	higher cytotoxicity than the control drugs fludarabine and cyclophosphamide		~10				10	20		induced apoptosis in a lower concentration range than fludarabine and cyclophosphamide	30
